According to patent US4020111A, “Propynyloxy alkyl arene insecticides” (priority 1975, dated 1977):
Values joined by “and” are separate entries in the source; they are usually repeats but may differ in a detail not shown here. Identical values can stand only once.

What was measured:
[1] = tested on: polyvalent resistant (CH strain) houseflies; assay: whole plant or invertebrate; type: in vivo, housefly (CH strain); settings: for percent kill after 24 hours: CH strain
Method: The effect of O-(2-propynyl) oximes with Dimetilan and with GS 13798 was obtained from tests on polyvalent resistant (CH strain) houseflies that had been chilled and to the dorsal region of which was applied an acetone solution of synergist and insecticide at a ratio of two to one. Duplicate tests were performed using 10 four to five-day old female houseflies per test. After dosage, the flies were put in a plastic petri dish with cotton soaked in a sugar-water solution. These doses of insecticide used without synergist caused 10-40% mortality.
(§1) In Table IX, and in the tables following it, the doses of topically applied insecticides and of synergists unless otherwise noted are expressed as micrograms per fly (μg/fly).
The effect of compounds II-C, II-D and II-E with Dimetilan and GS 13798 was determined, following the procedure of Example 5, from tests on polyvalent resistant (CH strain) houseflies. These doses of insecticide used without synergist caused 10-40% mortality.
(§2) The synergistic effect with GS 13005 of compounds I-A, I-B, I-D, I-E, I-F, I-G and I-I was determined from topical application tests to IN/WHO strain, Rutgers A strain and polyvalent CH strain houseflies using the procedures of Example 5. The percent kills of the IN/WHO strain flies after 24 hours are shown in Table XXVIII; of the Rutgers A strain, in Table XXIX; and of the polyvalent CH strain, in Table XXX. The doses of insecticide alone to the CH strain files caused 10-40% mortality.
(§3) The synergistic effect with Diazinon and GS 13005 of various of the benzyl 2-propynyl ethers identified in Tables II and IIa was determined by topical application tests on IN/WHO strain, and Rutgers A strain and polyvalent, resistant, CH strain houseflies using the procedures of Example 5. The percent kills after 24 hours of IN/WHO strain flies are shown in Table XXXI; of Rutgers A strain flies, in Table XXXII; and of CH strain flies, in Table XXXIII. The doses of insecticide alone to the CH strain flies caused 10-40% mortality.
The synergistic effect with pyrethrum of various synergist compounds was determined by topical application tests on polyvalent, resistant CH strain houseflies following the procedure of Example 5. Application of the insecticide alone caused 10-40% mortality.

[2] = tested on: German male cockroaches (Blatella Germanicus); assay: topical application to thorax, 24 hour mortality of German male cockroaches; type: in vivo, German cockroach (Blatella Germanicus)
Method: The synergistic effect with mobam of synergist compounds I-B, II-H, II-K and IV-C is further illustrated by the 24 hour mortality data of German male cockroaches (Blatella Germanicus) shown in Table XXXX. The synergists and insecticide were diluted in acetone and applied in small droplets to the thorax of the insect. These doses of synergist alone gave zero percent insect mortality.
The synergistic effect with GS 13005 of compounds I-B, II-H, II-K, II-P, II-Q, II-R and IV-C is illustrated by the 24 hour mortality of German male cockroaches shown in Table XXXXI. These doses of synergist alone caused zero percent insect mortality.

[3] = tested on: IN/WHO strain house flies; assay: topical application test, percent kill after 24 hours, IN/WHO strain; type: in vivo, house fly (susceptible IN/WHO strain)
In short: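 Susceptible female IN/WHO house flies, 3–5 days old, CO2-anesthetized, received synergist plus insecticide in acetone (1.0 μL) on the thorax; doses in μg/fly. Flies held 10 per dish, 3–5 dishes/treatment, with skim milk; mortality (percent kill) read at 24 h.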

[4] = tested on: Rutgers A strain house flies; assay: topical application test, percent kill after 24 hours, Rutgers A strain; type: in vivo, house fly (resistant Rutgers A strain)
Method: as §1
The synergistic effect of O-(2-propynyl) oximes with mobam was determined from topical application tests on susceptible, female, IN/WHO strain house flies and from tests on resistant, female, Rutgers A strain house flies. The synergist and insecticide were dissolved in ACS Grade acetone in such quantities that a 1.0μ liter volume applied to the thorax of 3-to-5 day old CO2 -anesthetized female adult house flies contained the desired dosage. After being treated, the flies were confined, 10 to a plaster petri dish, with 3-5 dishes/treatment, and held for 24-hr. observation of mortality. Reconstituted skim milk on cotton dental wicks was provided during the holding period. The percent kills after 24 hours are shown in Table X for the IN/WHO strain and Table XI for the Rutgers A strain.
The synergistic effect of benzyl 2-propynyl ethers with mobam was determined from topical application tests on IN/WHO and Rutgers A strain houseflies, following the procedure of Example 5. The percent kills after 24 hours are shown in Table XIV for the IN/WHO strain and in Table XV for the Rutgers A strain.
The synergistic effect with Diazinon of compounds I-B, I-D, I-F, I-G, I-H and I-I, identified in Tables I and Ia, was determined from topical application tests on IN/WHO strain houseflies and on Rutgers A strain houseflies by the procedure of Example 5. The percent kills after 24 hours are shown in Table XXV for the IN/WHO strain and Table XXVI for the Rutgers A strain.
as §2, §3
The synergistic effect on IN/WHO strain flies and Rutgers A strain flies of compound IV-C with GS 13005 and with Diazinon was determined by the topical application procedure of Example 5. The percent kills of IN/WHO strain flies after 24 hours are shown in Tables XXXVI and XXXVII; the percent kills of Rutgers A strain flies are shown in Tables XXXVIII and XXXIX.

mice [5] = assay: synergism of acute toxicity of Dimetilan, GS 13005, Secobarbital and Methadone (intraperitoneal); type: in vivo, Swiss albino white male mice; settings: for number of mice dead: 48 hours, of eight mice
In short: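 Male Swiss albino mice (5–6 weeks, 23–27 g), eight per dose; synergist in corn oil given i.p. 1 h before i.p. insecticide or drug (drugs in distilled water). Lethality recorded over at least 6 h; controls received corn oil plus agent alone.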

[6] = tested on: Wilson strain house flies; type: in vivo, house fly (susceptible Wilson strain); settings: for Contact Synergistic Ratio, Carbaryl (LC50 insecticide alone / LC50 with synergist): in vivo; for Contact Synergistic Ratio, Pyrolan (LC50 insecticide alone / LC50 with synergist): synergist to insecticide 5:1 by weight, 24 h
In short: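 Flies held at room temperature in glass jars coated with acetone-deposited insecticide film, alone or with synergist at 5:1 synergist:insecticide by weight; 10% sugar supplied.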

houseflies = assay: percent kill with Diazinon, Table XXVII (strain not given); type: in vivo, housefly; settings: Diazinon 5 + synergist 10 μg/fly, 1440 min
mice [7] = assay: extension of Secobarbital sleeping time by synergists; type: in vivo, Swiss albino white male mice; settings: Secobarbital 37 mg/K; for Relative Sleeping Time: treated/control
In short: (§4)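 Swiss albino male mice (~38 days, 25-30 g) given synergist at 74.0 or 110.0 mg/kg in corn oil 1 h before Secobarbital 37.0 mg/kg or Noludar 110.0 mg/kg in water. Sleeping time measured from drug dosing to righting-reflex recovery; relative sleeping time = treated ÷ drug-only control.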

mice [8] = assay: extension of Noludar sleeping time by synergists; type: in vivo, Swiss albino white male mice; settings: Noludar 110 mg/K, synergist 110 mg/K; for Relative Sleeping Time: treated/control
In short: as §4

mice [9] = assay: acute toxicity of Dimetilan alone and of synergist alone (intraperitoneal); type: in vivo, Swiss albino white male mice; settings: synergist alone 1000 mg/kg ip, 72 hours, of eight mice
Method: To determine the acute toxicity of dimetilan alone, eight dosage levels of Dimetilan, ranging from 4 to 32 mg per kg wer applied to eight, Swiss, albino, white, male mice per dosage level. The mice weighed approximately 23 to 27 grams and were five to size weeks old. The Dimetilan was administered intraperitoneally in 0.1 ml of corn oil one hour after the administration of the same dose of corn oil alone.
To determine the acute toxicity of the synergist alone, various synergists were administered intraperitoneally at a dose of 1000 mg/kg to each of a group of eight mice. The number of animals dead at the end of 72 hours is reported in the left hand column of Table XXXXVI.

[10] = synergist alone at doses of Table XXXXI
[11] = Dimetilan 8 mg/kg + synergist 240 mg/kg ip
[12] = GS 13005 71 mg/kg + synergist 213 mg/kg
[13] = Methadone 32 mg/kg + synergist 215 mg/kg
[14] = Secobarbital 90 mg/kg + synergist 215 mg/kg

Compound	Contact Synergistic Ratio, Carbaryl (LC50 insecticide alone / LC50 with synergist) [6]	Contact Synergistic Ratio, Pyrolan (LC50 insecticide alone / LC50 with synergist) [6]	Mean Sleeping Time (mice [7]; synergist 74 mg/K) [min]	Relative Sleeping Time (mice [7]; synergist 74 mg/K)	Mean Sleeping Time (mice [7]; synergist 110 mg/K) [min]	Relative Sleeping Time (mice [7]; synergist 110 mg/K)	insect mortality, synergist alone [2, 10]	Mean Sleeping Time (mice [8]) [min]	Relative Sleeping Time (mice [8])	number of mice dead (mice [9])	number of mice dead (mice [5]; [11])	mice lethality (number dead) (mice [5]; [12])	mice lethality (number dead) (mice [5]; [13])	mice lethality (number dead) (mice [5]; [14])	also measured
COc1nn(CSP(=S)(OC)OC)c(=O)s1 [GS 13005, S-((2-methoxy-5-oxo-Δ^2-1,3,4-thiadiazolin-4-yl)methyl) O,O-dimethyl phosphorodithioate, reference compound]	–	–	–	–	–	–	–	–	–	–	–	–	–	–	mortality at 1 µg/fly ([1]; Musca domestica, topical, 24 h, read-out: mortality, insecticide alone): 10 to 40%; 24 hour mortality ([2]; GS 13005 alone, dose 0.08, 1440 min): 15% and 23% and 10%; percent kill after 24 hours ([3]; GS 13005 alone 0.05 μg/fly): 0%; percent kill after 24 hours ([3]; GS 13005 alone 0.10 μg/fly, 1440 min): 19% and 16% and 12%; percent kill after 24 hours ([4]; GS 13005 alone 1.0 μg/fly, 1440 min): 2%; mice lethality (number dead) (mice [5]; control: GS 13005 71 mg/kg in 0.1 ml corn oil): 5
C#CCON=Cc1ccc(OC)c(OC)c1 [I-A]	200	30	–	–	–	–	–	–	–	–	–	–	–	–	percent kill after 24 hours ([1]; Dimetilan 2 + synergist 4 μg/fly): 100%; percent kill after 24 hours ([1]; GS 13005 1 + synergist 2 μg/fly): 45%; percent kill after 24 hours ([1]; GS 13798 1 + synergist 2 μg/fly): 65%; percent kill after 24 hours ([1]; Pyrethrum 2 + synergist 4 μg/fly): 15%; percent kill (houseflies): 45%
C#CCOCc1c(Cl)cccc1Cl [II-H]	300	40	44	1.4	51	2.1	zero	68	2.2	0	6	7	4	0	insect mortality, synergist alone ([2]; synergist alone at doses of Table XXXX): zero; number of mice dead (mice [5]; Dimetilan 8 mg/kg + synergist 80 mg/kg ip): 0
C#CCOCc1ccccc1[N+](=O)[O-] [II-P, 2-nitrobenzyl 2-propynyl ether]	–	–	–	–	46	1.0	zero	44	1.5	2	0	6	0	0	–
C#CCOCc1ccc([N+](=O)[O-])cc1 [II-Q, 4-nitrobenzyl 2-propynyl ether]	–	–	30	1.1	73	1.6	zero	41	2.1	7	1	6	–	–	–
CNC(=O)Oc1cccc2sccc12 [Mobam, 4-benzo(b) thienyl-N-methylcarbamate, reference compound]	–	–	–	–	–	–	–	–	–	–	–	–	–	–	24 hour mortality ([2]; Mobam alone, dose 0.12): 10%; 24 hour mortality ([2]; Mobam alone, dose 0.16): 30%; percent kill after 24 hours ([3]; Mobam alone 0.05 μg/fly): 0%; percent kill after 24 hours ([3]; Mobam alone 0.10 μg/fly): zero; percent kill after 24 hours ([3]; Mobam alone 0.10 μg/fly, 1440 min): 0%; percent mortality 24 hours ([3]; Mobam alone 0.13 μg/fly): 0%; percent kill after 24 hours ([3]; Mobam alone 0.20 μg/fly, 1440 min): 2%; percent mortality 24 hours ([3]; Mobam alone 0.50 μg/fly, 1440 min): 83%; percent mortality 24 hours ([3]; Mobam alone 1.0 μg/fly, 1440 min): 73% and 93%; change in lethality on doubling dose of mobam alone ([3]; mobam alone 0.05 to 0.10 mg/fly (so in the source)): no increase in lethality; percent kill after 24 hours ([4]; Mobam alone 0.15 μg/fly): 0%; percent kill after 24 hours ([4]; Mobam alone 0.30 μg/fly): 0%; percent kill after 24 hours ([4]; Mobam alone 0.40 μg/fly): 7%; percent kill after 24 hours ([4]; Mobam alone 0.60 μg/fly): 4%
